Data on 6 molecules can be found in US20050272677A1, “Delivery of a substance to a pre-determined site” (priority 2002, published 2005).

Series [1] is described as follows: In vivo delivery of luciferase DNA complexed with Sunfish amphiphiles. Set-up: species or system mouse. The conditions noted are these: 24 hours; efficiency order SF-46>SF-36>SF-6>SF-30>SF-63. The method, then:
Sunfish (SF) amphiphiles were tested and compared to DOTAP, a commercially available amphiphile (Avanti Polar Lipids). The used plasmid DNA codes for Luciferase, which is expressed upon transfection. Luciferase activity represents the efficiency of transfection. Liposomes were prepared by drying the Sunfish amphiphiles or DOTAP in glass tubes under a nitrogen flow followed by being under vacuum for one hour. The lipid film was resuspended in 20% sucrose by mixing and warming up for five minutes to 60° C. in a water bath. The liposomal suspension was then sonicated for three minutes. For lipoplexes formation, plasmid DNA (30 μg/mouse) diluted in 20% sucrose was added to the liposomes (450 nmol/mouse) under mixing. The lipoplexes were allowed to rest at room temperature for […] and were intravenously injected (150 μl) in male BALB/c mice. Organs (lungs, heart, liver, spleen and kidneys) were collected 24 hours after injection for analysis. Luciferase activity was measured in homogenates of the different organs and related to a standard curve obtained with purified recombinant Luciferase.

Series [2] concerns neurospheres (neural stem cells). Nature of the series: Ex vivo transfection of neurospheres with pEGFP-N1 lipoplexes. The format is cell-based, mice. The settings on record: 4 hours incubation, read after two days. The procedure: Neural stem cells were isolated from the forebrain of mice embryos and cultured in the presence of epidermal growth factor (EGF) and fibroblast growth factor (FGF). In the presence of these growth factors, neural stem cells form neurospheres, clusters of cells that grow in suspension.
Prior to transfection of neurospheres, the spheres were immobilized on Labtek culture plates that were coated with poly-ornithine. Subsequently, neurospheres were incubated for 4 hours with SF-6/DOPE (1:1 molar ratio), SF-63, SF-80/DOPE (1:1 molar ratio), or Lipofectamine 2000 lipoplexes, containing plasmid DNA encoding Enhanced Green Fluorescent Protein (pEGFP-N1). After two days, the transfection efficiency was determined with fluorescence microscopy.

In series [3] the target is T1, MscL (Escherichia coli, UniProt P0A742).
T1 construct: made in house; host or cells: E. coli PB104
T1 sequence (P0A742 2-136): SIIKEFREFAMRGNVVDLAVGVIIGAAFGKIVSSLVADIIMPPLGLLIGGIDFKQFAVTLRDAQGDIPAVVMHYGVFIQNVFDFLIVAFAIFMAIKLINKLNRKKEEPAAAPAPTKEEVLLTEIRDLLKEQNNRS
The series can be described thus: Release from heparin sulfate loaded liposomes with an applied electric field. The conditions noted are these: liposome with calcein, negative potential. The procedure:
In vitro release profiles of a model drug were determined. Liposomes, as in Example 1, with and without MscL-6His, were prepared in the presence of the dye, calcein and heparin sulfate, a natural polymer found in secretory granules. A liposome was inserted into the tip of a glass pipette with the application of suction. The pipette voltage relative to the bath was controlled by a current-to-voltage converter. The solution in both the bath and the pipette was buffered to 6.5 with histamine dichloride and phosphoric acid. An Axopatch 200B was used to apply voltages and to sample the currents at 2.5 ms intervals. Swelling was induced by the application of a negative potential. To measure the swelling, the isolated liposomes were imaged and analyzed as described (J. M. Fernandez, et al., 1991, Biophys. J. 59:1022-1027, and J. R. Monck, et al., 1991; Biophys. J. 59:39-47).

Series [4] in a line: Gelation in the presence of surfactants and polymeric micelles. The arrangement: key: G = gel; C = crystalline; G^a: ^a= not stable. The format is physicochemical.
Assay in series [5]: as above
The format is physicochemical. Set-up: key: g = gel; i = insoluble; p = precipitate; sol = soluble.

The next series addresses α-chymotrypsin (Bos taurus, UniProt P00766). The series can be described thus: Cleavage of prodrug-gelling agent conjugate by α-chymotrypsin in gel and solution. The format is biochemical. The method, then:
The prodrug has been mixed with several gelators (neutral: C3-Am-Meth-Am-CH2CH2OCH2CH2OH as well as ionizable: DBC and C3-Am-Meth-OH) and stabile gels were obtained (0.25 wt % of the prodrug and 0.5 wt % of the gelator). […] This difference could be observed with the naked eye: after 20 minutes, the solution containing the prodrug turned bright yellow (due to the release of nitroaniline, whereas the gel containing the prodrug turned slightly yellow only after 20 hours.

Series [6] is described as follows: Urinary excretion of IOT after subcutaneous injection. The format is in vivo, rat. The conditions noted are these: conscious rats. The method, then:
DOPC/DOPS (90:10, mol/mol) and DOPC/DOPE liposomes (70:30, mol/mol) liposomes were tested.
Male Wistar rats remained conscious throughout the study. To increase the time-resolution, the diuretic furosemide (10 mg/kg dose s.c) was given in the morning, seven hours before administration of the sample. Urine was collected automatically with a one hour resolution. The concentration of IOT in the urine was measured by HPLC.

Series [7] concerns pB104 strain (MscL null E. coli). Nature of the series: MTSET shock assay on agar plates with IPTG. The format is cell-based. Set-up: Growth −MTSET-shock: key to the marks not given beside the values. The procedure: The constructs of the G20C^Ll, V21C^Ll and G22C^Ec MscL-6His mutants were constructed using standard molecular biology techniques. The mutants were tested in pB104 strain (MscL null E. coli) by a MTSET shock assay on agar plates with IPTG (A. F. Batiza, et al., 2002, PNAS, 99:5643-5648).

The target of the next series is MscL-mutant G22C (Escherichia coli, UniProt P0A742, G22C). The settings on record: DOPC:DOPS (9:1) liposomes, 1 mM MTSET.
Series [8] addresses MscL (Escherichia coli, UniProt P0A742, G22C). The format is biochemical, E. coli. Set-up: made in house; host or cells: E. coli PB104. The conditions noted are these: DOPC:DOPS (90:10) liposomes, 1 mM MTSET. The procedure: Results Overexpression and Purification of the MscL Channel Protein
Samples were prepared and calcein efflux was monitored as described elsewhere in Example 1.
300 μl of detergent-treated liposomes were gently mixed with 240 μl of 0.25 mg/ml purified MscL-mutant G22C in elution buffer containing 0.2% Triton X-100. The mixture was incubated at 60° C. for 45 minutes, followed by the addition of an equal volume (540 μl) of calcein-loading buffer, containing 200 mM calcein, 25 mM Tris, 1 mM EDTA, pH 8.0. After addition of 20 mg of Triton X-100-absorbing Bio-Beads SM-2, the mixture was gently agitated for one hour at room temperature. Subsequently, 80 mg Bio-Beads were added and incubated at 4° C. overnight under mild agitation. Samples were prepared for calcein efflux assay as described elsewhere.

Experimental for MscL-mutant G22C: DOPC:DOPS (9:1 mol/mol) liposomes containing the G22C MscL were prepared as described previously. […] The labeled insulin was encapsulated by three freeze-thaw cycles, followed by extrusion through a 400 nm polycarbonate membrane.
Samples were taken at different time points and triton was added as a control for maximum fluorescence (100%). Samples were filtered over a 450 nm Cellulose Nitrate filter (Schleicher & Schuell BA85). The filtrate of 2 ml was retained and the fluorescence of 200 μl of each filtrate was monitored in a f1600 platereader (Bio-Tek). All experiments were performed in triplo.

As for `CCCCCCCC/C=C\CCCCCCCCCc1ccc[n+](CCCCCCCC/C=C\CCCCCCCC)c1.[Cl-]` [SF-63, 1-(9′-cis-octadecenyl)-3-(10″-cis-nonadecenyl)pyridinium Chloride], in series [1], the “gene expression (Luciferase) after intravenous injection of complexed DNA” value was “resulted in gene expression in the lungs”. In addition, the “transfection efficiency (GFP, fluorescence microscopy)” value in series [2] is listed as “constant”.

In the case of heparin sulfate, the “swelling on applied voltage” value on MscL [3] is “swelled instantaneously and predictably with the application of a negative voltage”.

Turning to `O=C(N[C@@H](CSSC[C@H](NC(=O)c1ccccc1)C(=O)O)C(=O)O)c1ccccc1` [DBC, dibenzoyl-L-cystine, reference compound], the “response of gel to reducing agent” value (1 wt % gel, tris-(2-carboxy ethyl)phosphine) is “gel-to-sol transition”. For the same molecule, for the setting “D-glucose, glucose oxidase, catalase, NaHCO3, after three days”, the “gelation by pH decrease through D-gluconic acid formation” value is “completely gelified”. Besides, the Gelation properties result is given as “G” in [4] (CTAB < CMC, * pH reversible gelation); “G” in [4] (CTAB < CMC, ** pH reversible then thermoreversible gelation); “G” in series [4] (CTAB > CMC, * pH reversible gelation); “G” in [4] (CTAB > CMC, ** pH reversible then thermoreversible gelation); “G” in series [4] (Lactose der. < CMC, * pH reversible gelation); “G” in series [4] (Lactose der. < CMC, ** pH reversible then thermoreversible gelation). Also, the Gelation properties entry was “G” in [4] (Lactose der. > CMC, * pH reversible gelation); “G” in [4] (Lactose der. > CMC, ** pH reversible then thermoreversible gelation); “G” in series [4] (Nonionic (Lactose der.) < CMC); “G” in [4] (Nonionic (Lactose der.) > CMC); “g^a” in series [4] (Pluronic P 105, 100 mg · ml^−1); “G” in series [4] (SDS < CMC, * pH reversible gelation). Moreover, the Gelation properties result in series [4] (SDS < CMC, ** pH reversible then thermoreversible gelation) is reported as “G”; in [4] (SDS > CMC, * pH reversible gelation) it was “G”; in series [4] (SDS > CMC, ** pH reversible then thermoreversible gelation), “G”; in series [4] (anionic (SDS) < CMC), “G”; in series [4] (anionic (SDS) > CMC), “G”; in series [4] (cationic (CTAB) < CMC), “G”. The Gelation properties entry is recorded as “C” in series [4] (cationic (CTAB) > CMC); “g” in series [5] (Pluronic P 105, 5 mg · ml^−1); “g” in series [5] (Pluronic P 105, 5 mg · ml^−1, * pH reversible gelation); “g” in [5] (Pluronic P 105, 5 mg · ml^−1, ** pH reversible then thermoreversible gelation); “g” in series [5] (Pluronic P 105, 100 mg · ml^−1, * pH reversible gelation); “g” in series [5] (Pluronic P 105, 100 mg · ml^−1, ** pH reversible then thermoreversible gelation).

Regarding “CHex(AmEtOEtOH)2(AmPhe-pNA) [compound 16]”, the “time until gel turned slightly yellow (release of nitroaniline)” value on α-chymotrypsin (0.25 wt % prodrug in mixed gel, 0.5 wt % gelator) was found to be 20 h. Also, the “time until solution turned bright yellow (release of nitroaniline)” value at α-chymotrypsin (prodrug in solution layered with α-chymotrypsin) was 20 min.

In the case of `CNC(=O)c1c(I)c(NC(C)=O)c(I)c(C(=O)O)c1I` [IOT, Iodo-thalamate], the “urinary excretion of IOT after subcutaneous injection” value in series [6] is on record as “completed in the first couple of hours after injection”.

B1: G22C E. coli (protein, UniProt P0A742 1-136, looked up, variant G22C)
Large-conductance …: MSIIKEFREFAMRGNVVDLAVCVIIGAAFGKIVSSLVADIIMPPLGLLIGGIDFKQFAVTLRDAQGDIPAVVMHYGVFIQNVFDFLIVAFAIFMAIKLINKLNRKKEEPAAAPAPTKEEVLLTEIRDLLKEQNNRS
For the molecule B1, in series [7], the “Growth after +MTSET-shock” value is reported as “−” and the “Growth −MTSET-shock” value is reported as “++++”. Also, in the series with MscL-mutant G22C, the FITC insulin efflux entry was “release of FITC insulin through MscL-mutant G22C upon activation with 1 mM MTSET”. For the same molecule, in the series with MscL [8], the encapsulated calcein released is 80% and the “time in which half of the MscL-mediated efflux occurs” value is listed as “seven”.
